Assay results as given in US11477982B2, “2-amino-5-oxyalkyl-pyrimidine derivatives and their use for controlling undesired plant growth” (Bayer CropScience Aktiengesellschaft, priority 2017, dated 2022).

How the values were obtained:
Format in all cases: in vivo
[1] = tested on: ABUTH: Abutilon theophrasti; test: Pre-emergence herbicidal effect; details: dosage 320 g/ha
In short: (§1)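 Herbicide, as WP or EC in aqueous spray with 0.5% additive, applied at 600 l/ha to soil surface covering freshly sown seeds. Pots held in greenhouse about 3 weeks, then activity scored visually versus untreated controls as percent (0% = like control, 100% = plants dead).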

[2] = tested on: ALOMY: Alopecurus myosuroides; test: Pre-emergence herbicidal effect; details: pre-emergence; dosage 320 g/ha
In short: as §1

[3] = tested on: AMARE: Amaranthus retroflexus; test: Pre-emergence herbicidal effect; details: pre-emergence; dosage 320 g/ha
In short: as §1

AVEFA: Avena fatua = test: Pre-emergence herbicidal effect; details: dosage 320 g/ha
In short: as §1

[4] = tested on: ECHCG: Echinochloa crus-galli; test: Pre-emergence herbicidal effect; details: pre-emergence; dosage 320 g/ha
In short: as §1

HORMU: Hordeum murinum = test: Pre-emergence herbicidal effect; details: pre-emergence; dosage 320 g/ha
In short: as §1

LOLRI: Lolium rigidum = test: Pre-emergence herbicidal effect; details: dosage 320 g/ha
In short: as §1

[5] = tested on: MATIN: Matricaria inodora; test: Pre-emergence herbicidal effect; details: pre-emergence; dosage 320 g/ha
In short: as §1

PHBPU: Ipomoea purpurea = test: Pre-emergence herbicidal effect; details: dosage 320 g/ha
In short: as §1

[6] = tested on: POLCO: Polygonum convolvulus; test: Pre-emergence herbicidal effect; details: dosage 320 g/ha
In short: as §1

SETVI: Setaria viridis [7] = test: Pre-emergence herbicidal effect; details: pre-emergence; dosage 320 g/ha
In short: as §1

STEME: Stellaria media [8] = test: Pre-emergence herbicidal effect; details: pre-emergence; dosage 320 g/ha
In short: as §1

VERPE: Veronica persica [9] = test: Pre-emergence herbicidal effect; details: dosage 320 g/ha
In short: as §1

VIOTR: Viola tricolor [10] = test: Pre-emergence herbicidal effect; details: dosage 320 g/ha
In short: as §1

[11] = tested on: ABUTH: Abutilon theophrasti; test: Post-emergence herbicidal effect; details: dosage 320 g/ha
Procedure: (§2) 2. Post-Emergence Herbicidal Effect and Crop Plant Compatibility
(§3) Seeds of monocotyledonous and dicotyledonous weeds and crop plants are placed in sandy loam in plastic or wood-fiber pots, covered with soil and cultivated in a greenhouse under controlled growth conditions, 2 to 3 weeks after sowing, the test plants are treated at the one-leaf stage. The compounds of the invention, formulated in the form of wettable powders (WP) or as emulsion concentrates (EC), are then sprayed onto the green parts of the plants as aqueous suspension or emulsion with addition of 0.5% additive at a water application rate of 600 l/ha (converted). After the test plants had been kept in the greenhouse under optimum growth conditions for about 3 weeks, the activity of the preparations is rated visually in comparison to untreated controls. For example, 100% activity=the plants have died, 0% activity=like control plants.

[12] = tested on: AMARE: Amaranthus retroflexus; test: Post-emergence herbicidal effect; details: dosage 320 g/ha
Procedure: as §2, §3

[13] = tested on: ECHCG: Echinochloa crus-galli; test: Post-emergence herbicidal effect; details: dosage 320 g/ha
Procedure: as §2, §3

SETVI: Setaria viridis [14] = test: Post-emergence herbicidal effect; details: dosage 320 g/ha
Procedure: as §2, §3

STEME: Stellaria media [15] = test: Post-emergence herbicidal effect; details: dosage 320 g/ha
Procedure: as §2, §3

VERPE: Veronica persica [16] = test: Post-emergence herbicidal effect; details: dosage 320 g/ha
Procedure: as §2, §3

VIOTR: Viola tricolor [17] = test: Post-emergence herbicidal effect; details: dosage 320 g/ha
Procedure: as §2, §3

Row | SMILES | Herbicidal action against ABUTH [1] [%] | Herbicidal action against ALOMY [2] [%] | Herbicidal action against AMARE [3] [%] | Herbicidal action against AVEFA (AVEFA: Avena fatua) [%] | Herbicidal action against ECHCG [4] [%] | Herbicidal action against HORMU (HORMU: Hordeum murinum) [%] | Herbicidal action against LOLRI (LOLRI: Lolium rigidum) [%] | Herbicidal action against MATIN [5] [%] | Herbicidal action against PHBPU (PHBPU: Ipomoea purpurea) [%] | Herbicidal action against POLCO [6] [%] | Herbicidal action against SETVI (SETVI: Setaria viridis [7]) [%] | Herbicidal action against STEME (STEME: Stellaria media [8]) [%] | Herbicidal action against VERPE (VERPE: Veronica persica [9]) [%] | Herbicidal action against VIOTR (VIOTR: Viola tricolor [10]) [%] | Herbicidal action against ABUTH [11] [%] | Herbicidal action against AMARE [12] [%] | Herbicidal action against ECHCG [13] [%] | Herbicidal action against SETVI (SETVI: Setaria viridis [14]) [%] | Herbicidal action against STEME (STEME: Stellaria media [15]) [%] | Herbicidal action against VERPE (VERPE: Veronica persica [16]) [%] | also measured
1 | CCC(O)(CC)c1cnc(N[C@H]2c3cc(C)ccc3C[C@@H]2C)nc1 [Example 1.10] | 100 | 100 | 100 | 100 | 100 | 100 | 100 | 100 | 80 | 100 | 100 | 100 | 100 | 100 | 90 | 90 | 100 | 80 | 100 | 90 | Herbicidal action against VIOTR (VIOTR: Viola tricolor [17]): 90%
2 | Cc1ccc2c(c1)[C@H](Nc1ncc(C(C)(O)C(F)(F)F)cn1)[C@@H](C)C2 (stereo partly drawn) [Example 1.11] | 100 | 100 | 100 | 100 | 100 | 100 | 100 | 100 | 80 | 100 | 100 | 100 | 100 | 100 | 90 | 100 | 100 | 100 | 100 | 90 | Herbicidal action against VIOTR (VIOTR: Viola tricolor [17]): 90%
3 | Cc1ccc2c(c1)[C@H](Nc1ncc(C(C)(C)O)c(C)n1)CC2 [Example 1.12] | 100 | 100 | 100 | 100 | 100 | 100 | 100 | 100 | 100 | 100 | 100 | 100 | 100 | 100 | 90 | 90 | 100 | 100 | 100 | 90 | Herbicidal action against VIOTR (VIOTR: Viola tricolor [17]): 80%
4 | CCC(C)(O)c1cnc(N[C@H]2c3cc(C)ccc3C[C@@H]2C)nc1 (stereo partly drawn) [Example 1.14] | 100 | 100 | 100 | 100 | 100 | 100 | 100 | 100 | 100 | 100 | 100 | 100 | 100 | 100 | 90 | 100 | 100 | 90 | 100 | 90 | Herbicidal action against VIOTR (VIOTR: Viola tricolor [17]): 90%
5 | C=CC(C)(O)c1cnc(N[C@H]2c3cc(C)ccc3C[C@@H]2C)nc1 (stereo partly drawn) [Example 1.15, 2-(2-{[(1R,2S)-2,6-Dimethyl-2,3-dihydro-1H-inden-1-yl]amino}pyrimidin-5-yl)but-3-en-2-ol] | 100 | 100 | 100 | 100 | 100 | 100 | 100 | 100 | 100 | 100 | 100 | 100 | 100 | 100 | 90 | 90 | 100 | 80 | 100 | 90 | Herbicidal action against VIOTR (VIOTR: Viola tricolor [17]): 80%
6 | C#CC(C)(O)c1cnc(N[C@H]2c3cc(C)ccc3C[C@@H]2C)nc1 (stereo partly drawn) [Example 1.18] | 100 | 100 | 100 | 100 | 100 | 100 | 100 | 100 | 100 | 100 | 100 | 100 | 100 | 100 | 90 | 90 | 100 | 90 | 100 | 100 | Herbicidal action against VIOTR (VIOTR: Viola tricolor [17]): 90%
7 | CC#CC(C)(O)c1cnc(N[C@H]2c3cc(C)ccc3C[C@@H]2C)nc1 (stereo partly drawn) [Example 1.22] | 100 | 100 | 100 | 100 | 100 | 100 | 100 | 100 | 100 | 100 | 100 | 100 | 100 | 100 | 90 | 90 | 100 | 100 | 90 | 90 | Herbicidal action against VIOTR (VIOTR: Viola tricolor [17]): 90%
8 | COC(C)(C)c1cnc(N[C@H]2c3cc(C)ccc3C[C@@H]2C)nc1 [Example 1.24] | 100 | 100 | 100 | 100 | 100 | 100 | 100 | 100 | 90 | 100 | 100 | 100 | 100 | 100 | 90 | 90 | 100 | 90 | 100 | 90 | Herbicidal action against VIOTR (VIOTR: Viola tricolor [17]): 90%
